Earlier results, collected in patent US20080286377A1 (priority 2001, published 2008).

What was measured:
[1] = activity assays
bone resorption = conditions: mild to moderate Paget's disease; administration for 10 days (intravenous) to 6 months (oral); SAP activity and UHP excretion as indicators
[2] = test system: osteolysis associated with wear debris; conditions: systemic administration

In the case of N.N.[Cl][Pt][Cl] [cisplatin], the “effect of PMMA polymerization process on drug potency” value (shortened to “effect of PMMA polymerization process”) [1] is listed as “did not adversely impact or alter the therapeutic potential”.

In the case of NCCC(O)(P(=O)(O)O)P(=O)(O)O [pamidronate disodium], the “biochemical remission of bone resorption, mean duration” value (bone resorption) is given as 2.7 years.

In the case of NCCCC(O)(P(=O)(O)O)P(=O)(O)O [alendronate], the “osteolysis associated with wear debris” value [2] is given as “inhibited osteolysis”, the “prevention of resorption, 10-second contact” value (alveolar bone resorption; 10-second contact of soaked pellet to alveolar bone) is given as “ineffective in preventing resorption” and the “bone resorption after local administration” value (alveolar bone resorption; drug-soaked pellet against alveolar bone for 2 hours, monitored 21 days later) is given as “significantly reduced bone resorption”. For the same compound, the “prevention of resorption, systemic administration” value (alveolar bone resorption; systemic administration) was “effective”.

For CN(Cc1cnc2nc(N)nc(N)c2n1)c1ccc(C(=O)N[C@@H](CCC(=O)O)C(=O)O)cc1 [methotrexate], the “effect of PMMA polymerization process” value [1] is given as “did not adversely impact or alter the therapeutic potential”.

For Gentamicin, the “effect of PMMA polymerization process” value [1] is given as “did not adversely impact or alter the therapeutic potential”.
